Values joined by “and” are separate entries in the source; they are usually repeats but may differ in a detail not shown here. Equal entries are not always repeated.
Assays:
Assay type in all cases: functional
Mus musculus [1] = assay: Effect on the plaque forming cell formation in BDF1 mice after peroral administration at dose of 10 mg/kg; conditions: route oral
Mus musculus [2] = assay: Effect on the plaque forming cell formation in BDF1 mice after peroral administration at dose of 300 mg/kg; conditions: route oral
Mus musculus [3] = assay: Effect on the plaque forming cell formation in BDF1 mice after peroral administration at dose of 30 mg/kg; conditions: route oral
Mus musculus [4] = assay: Effect on the plaque forming cell formation in BDF1 mice after peroral administration at dose of 100 mg/kg; conditions: route oral
Mus musculus [5] = assay: Compound was tested for its significant suppressive activity of delayed type hypersensitivity (DTH) with out inhibition of humoral immunity in mice by oral administration at dose of 25 mg/kg
Mus musculus [6] = assay: Compound was tested for its significant suppressive activity of delayed type hypersensitivity (DTH) with out inhibition of humoral immunity in mice by oral administration at dose of 200 mg/kg
Mus musculus [7] = assay: Significant suppressive activity of delayed type hypersensitivity (DTH) with out inhibition of humoral immunity in mice by oral administration at dose of 50 mg/kg
Mus musculus [8] = assay: Significant suppressive activity of delayed type hypersensitivity (DTH) with out inhibition of humoral immunity in mice by oral administration at dose of 400 mg/kg
Mus musculus [9] = assay: Compound was tested for its significant suppressive activity of delayed type hypersensitivity (DTH) with out inhibition of humoral immunity in mice by oral administration at dose of 100 mg/kg

Q: How did the PFC/splleen (Mus musculus [1]) turn out when `Oc1cccc(-c2cn3c(n2)sc2ccccc23)c1` was run?
A: 0.177

Q: And the PFC/splleen (Mus musculus [2])?
A: 0.182

Q: What about the PFC/splleen (Mus musculus [3]) of the same molecule?
A: 0.138

Q: What about the PFC/splleen (Mus musculus [4]) of the same molecule?
A: 0.198

Q: What about the “Increase in ear thickness” value (Mus musculus [5]) of the same molecule?
A: 5.3 1/100mm

Q: And the “Increase in ear thickness” value (Mus musculus [6])?
A: 2.8 1/100mm

Q: And the inhibition in vivo at 200 mg/kg (Mus musculus [6])?
A: 54.8%

Q: What about the inhibition in vivo at 50 mg/kg (Mus musculus [7]) of the same molecule?
A: 37.1%

Q: What about the “Increase in ear thickness” value (Mus musculus [7]; 50 mg/kg) of the same molecule?
A: 3.4 1/100mm and 3.9 1/100mm

Q: And the inhibition in vivo at 400 mg/kg (Mus musculus [8])?
A: 79%

Q: What about the “Increase in ear thickness” value (Mus musculus [8]; 400 mg/kg) of the same molecule?
A: 0.9 1/100mm and 1.3 1/100mm

Q: And the “Increase in ear thickness” value (Mus musculus [9])?
A: 2.4 1/100mm

Q: And the inhibition in vivo at 100 mg/kg (Mus musculus [9])?
A: 61.3%
